Test results: PubChem BioAssay AID202 (DTP/NCI, 2004)
Where “and” joins values, the source holds several entries; their conditions need not be identical. Identical values can stand only once.

System: HT29 xenograft, nude mice, s.c., tumor weight T/C%
Assay: NCI In Vivo Anticancer Drug Screen. Data for tumor model HT29;CX-1 Human Adenocarcinoma (MER+) (subcutaneous) in NU/NU Swiss (nude) mice
Details: endpoint: optimum tumor weight change, schedule: Q04DX003 (ip), higher = larger tumour
Protocol: The antitumor activity of compounds was measured in mice bearing transplantable tumors. Survival or tumor size were measured and the results are expressed as the measurement made in the treated group (T) divided by the measurement made in the vehicle treated control group (C). The tumor model used in this assay is HT29;CX-1 Human Adenocarcinoma (MER+) (subcutaneous) in NU/NU Swiss (nude) mice

[1] = dose: 50.0 mg/kg/injection, vehicle: Klucel (hydroxypropylcellulose) (HPC)
[2] = dose: 800.0 mg/kg/injection, vehicle: saline

Cc1c(N)nc([C@H](CC(N)=O)NC[C@H](N)C(N)=O)nc1C(=O)N[C@H](C(=O)N[C@H](C)[C@@H](O)CC(=O)N[C@H](C(=O)NC(O[C@@H]1O[C@@H](C)[C@@H](N)[C@@H](O)[C@H]1O)C(O)c1nc(-c2nc(C(=O)NCCCCN)cs2)cs1)[C@@H](C)O)[C@@H](O[C@@H]1O[C@@H](CO)[C@@H](O)[C@H](O)[C@@H]1O[C@H]1O[C@H](CO)[C@@H](O)[C@H](OC(N)=O)[C@@H]1O)c1c[nH]cn1 (stereo not given in full)
T/C (dose: 4.0 mg/kg/injection, vehicle: saline): 47 % of control
T/C (dose: 8.0 mg/kg/injection, vehicle: saline): 27 % of control
T/C (dose: 16.0 mg/kg/injection, vehicle: saline): 7 % of control

O=S(CCCl)CCCl
T/C (dose: 25.0 mg/kg/injection, vehicle: Klucel (hydroxypropylcellulose) (HPC)): 72 % of control
T/C [1]: 51 % of control
T/C (dose: 100.0 mg/kg/injection, vehicle: Klucel (hydroxypropylcellulose) (HPC)): 65 % of control

CNC=O
T/C (dose: 200.0 mg/kg/injection, vehicle: saline): 168 % of control
T/C (dose: 400.0 mg/kg/injection, vehicle: saline): 78 % of control
T/C [2]: 104 % of control

CO[C@H]1C[C@](C)(O)Cc2cc3c(c(O)c21)C(=O)c1c(O)cc2c(c1C3=O)O[C@@H]1O[C@@]2(C)[C@H](O)[C@@H](N(C)C)[C@@H]1O
T/C (dose: 3.13 mg/kg/injection, vehicle: other): 97 % of control
T/C (dose: 6.25 mg/kg/injection, vehicle: other): 124 % of control
T/C (dose: 12.5 mg/kg/injection, vehicle: other): 68 % of control
T/C (dose: 25.0 mg/kg/injection, vehicle: other): 61 % of control and 75 % of control

Nc1nc(N)c2cc(CNc3ccc(C(=O)NC(CC(=O)O)CC(=O)O)cc3)ccc2n1
T/C [1]: 84 % of control

COc1cccc2c1C(=O)c1c(O)c3c(c(O)c1C2=O)C[C@@](O)(C(=O)CO)C[C@@H]3OC1CC(N)C(O)C(C)O1 (stereo not given in full)
T/C (dose: 2.0 mg/kg/injection, vehicle: water): 83 % of control

Nc1ccc(Cl)cc1N
T/C (dose: 400.0 mg/kg/injection, vehicle: saline with Tween-80): 87 % of control
T/C (dose: 800.0 mg/kg/injection, vehicle: saline with Tween-80): 98 % of control

N=C(N)SCc1c2ccccc2c(CSC(=N)N)c2ccccc12
T/C (dose: 50.0 mg/kg/injection, vehicle: suspension in saline): 88 % of control

NC(=O)c1ccc[n+](Cc2c(Cl)cccc2Cl)c1
T/C (dose: 48.0 mg/kg/injection, vehicle: saline): 122 % of control

COc1cccc2c1C(=O)c1c(O)c3c(c(O)c1C2=O)C[C@@](O)(C(C)=O)C[C@@H]3OC1CC(N)C(O)C(C)O1 (stereo not given in full)
T/C (dose: 1.0 mg/kg/injection, vehicle: saline): 71 % of control
T/C (dose: 2.0 mg/kg/injection, vehicle: saline): 113 % of control

CC(C)CCCCCCCCCCCCC(=O)NCC(=O)NC1C(C)OC(Nc2ncnc3nc[nH]c23)C(O)C1O (stereo not given)
T/C (dose: 3.13 mg/kg/injection, vehicle: distilled water + Tween-80): 88 % of control
T/C (dose: 3.13 mg/kg/injection, vehicle: saline with Tween-80): 58 % of control
T/C (dose: 6.25 mg/kg/injection, vehicle: distilled water + Tween-80): 56 % of control and 66 % of control
T/C (dose: 6.25 mg/kg/injection, vehicle: saline with Tween-80): 52 % of control
T/C (dose: 12.5 mg/kg/injection, vehicle: distilled water + Tween-80): 55 % of control
T/C (dose: 12.5 mg/kg/injection, vehicle: saline with Tween-80): 40 % of control
T/C (dose: 25.0 mg/kg/injection, vehicle: distilled water + Tween-80): 73 % of control

O=C(O)CP(=O)(O)O
T/C [2]: 94 % of control
T/C (dose: 1600.0 mg/kg/injection, vehicle: saline): 66 % of control
